Measured values: article PMC4700268 (Frontiers in Pharmacology, 2016)
Like-named read-outs stand apart in the source and are kept apart here. Blank lines part the entries; values can stand above or below the molecule they belong to.

How the values were obtained:
[1] = system: HeLa cells transiently transfected with hOAT1; assay: MTS cell viability assay in hOAT1 transfected HeLa cells; conditions: 24 h, hOAT1 vs empty vector transfected HeLa cells
Protocol: (§3) The Hela cells were plated in a 96-well plate and transfected with hOAT1 as described above. […] The controls were prepared simultaneously. After 24 h of incubation, the reagent from the kit CellTiter 96 AQueous One Solution Cell Proliferation Assay (CellTiter 96, PROMEGA, USA) was added. After 1.5 h of incubation at 37°C the absorbance was recorded at 490 nm.

[2] = molecular target: T1, hOAT1 (Homo sapiens, UniProt Q4U2R8); parameters: method as in Ho et al. (2000); conditions: ref Ho et al. (2000); read-out: Km in CHO cells stably expressing hOAT1; cited from earlier work
T1 sequence (Q4U2R8 1-563): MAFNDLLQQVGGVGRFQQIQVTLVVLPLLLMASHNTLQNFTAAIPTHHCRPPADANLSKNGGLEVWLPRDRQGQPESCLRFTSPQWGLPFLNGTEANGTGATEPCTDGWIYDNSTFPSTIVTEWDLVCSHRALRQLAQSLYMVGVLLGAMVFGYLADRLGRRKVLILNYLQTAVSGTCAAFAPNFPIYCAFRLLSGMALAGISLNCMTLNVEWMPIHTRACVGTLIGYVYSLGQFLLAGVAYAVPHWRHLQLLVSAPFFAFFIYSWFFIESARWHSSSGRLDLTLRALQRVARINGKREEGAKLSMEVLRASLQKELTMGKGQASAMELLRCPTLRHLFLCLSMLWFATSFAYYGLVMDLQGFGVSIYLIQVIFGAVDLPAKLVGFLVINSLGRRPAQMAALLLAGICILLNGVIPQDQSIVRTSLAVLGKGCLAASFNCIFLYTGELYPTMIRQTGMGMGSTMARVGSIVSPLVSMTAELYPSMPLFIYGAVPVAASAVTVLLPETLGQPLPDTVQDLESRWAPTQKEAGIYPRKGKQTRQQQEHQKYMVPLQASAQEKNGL

[3] = ref Cundy, 1999; Kearney et al., 2005; Delahunty et al., 2006; cited from earlier work
[4] = molecular target: T2, hCNT2 (Homo sapiens, UniProt O43868); assay: Inhibition of [3H]uridine uptake in hCNT2 transfected MDCK II cells; type: in vitro ADME; parameters: host or cells: MDCK II cells, transient transfection; conditions: 1 μM [3H]uridine, 0–1000 μM, 2 min, MDCK II
T2 sequence (O43868 1-658): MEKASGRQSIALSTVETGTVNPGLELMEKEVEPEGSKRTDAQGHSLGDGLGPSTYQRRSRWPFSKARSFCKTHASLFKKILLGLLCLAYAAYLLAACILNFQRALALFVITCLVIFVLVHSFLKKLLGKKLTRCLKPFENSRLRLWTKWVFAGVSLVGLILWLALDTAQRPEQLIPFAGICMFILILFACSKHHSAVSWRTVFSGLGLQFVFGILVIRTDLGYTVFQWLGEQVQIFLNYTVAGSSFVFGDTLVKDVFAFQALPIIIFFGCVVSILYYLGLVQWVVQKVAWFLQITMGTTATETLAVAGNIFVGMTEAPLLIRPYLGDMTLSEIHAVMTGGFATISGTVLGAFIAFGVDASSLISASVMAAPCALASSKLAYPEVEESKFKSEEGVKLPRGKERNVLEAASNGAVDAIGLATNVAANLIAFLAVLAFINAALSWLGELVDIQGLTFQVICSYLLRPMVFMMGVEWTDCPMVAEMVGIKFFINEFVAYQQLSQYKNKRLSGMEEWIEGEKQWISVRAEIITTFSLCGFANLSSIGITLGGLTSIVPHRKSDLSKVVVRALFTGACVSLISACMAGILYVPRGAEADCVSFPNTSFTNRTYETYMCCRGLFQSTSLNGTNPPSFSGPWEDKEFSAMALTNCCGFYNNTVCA
Protocol: (§1) Inhibitory transport assays were carried out in 24-well plates as described previously ([Mandikova et al., 2013]). Transport assays in HeLa cells transiently transfected with the hOAT1 expression construct were performed 48 h after transfection. Transport assays in MDCK II cells transiently transfected with hOCT2, hCNT2 or hCNT3 were performed 24 h after transfection. The cultivation medium was removed and the cells were washed with transport solution and preincubated for 10 min at 37°C. The standard radiolabeled substrate or tested radioactive antiviral substance dissolved in transport solution was added to the cells and incubated for 2 min. [^3H]PAH (1 μM) was used as a prototypical substrate for OATs, [^3H]MPP^+ (1 μM) for OCTs and [^3H]uridine (1 μM) for CNTs. […] After the designated time period, the incubation was stopped by washing the cells twice with ice-cold solution containing 137 mM NaCl and 10 mM HEPES, pH 7.4. The cells were disintegrated with 0.1 mL of Triton X 0.5% in 100 mM NaOH for 1 h.
(§2) IC50 values were calculated using non-linear regression analysis using GraphPad Prism software (version 6).

[5] = molecular target: T3, hCNT3 (Homo sapiens, UniProt Q9HAS3); assay: Inhibition of [3H]uridine uptake in hCNT3 transfected MDCK II cells; type: in vitro ADME; parameters: host or cells: MDCK II cells, transient transfection; conditions: 1 μM [3H]uridine, 0–1000 μM, 2 min, MDCK II
T3 sequence (Q9HAS3 1-691): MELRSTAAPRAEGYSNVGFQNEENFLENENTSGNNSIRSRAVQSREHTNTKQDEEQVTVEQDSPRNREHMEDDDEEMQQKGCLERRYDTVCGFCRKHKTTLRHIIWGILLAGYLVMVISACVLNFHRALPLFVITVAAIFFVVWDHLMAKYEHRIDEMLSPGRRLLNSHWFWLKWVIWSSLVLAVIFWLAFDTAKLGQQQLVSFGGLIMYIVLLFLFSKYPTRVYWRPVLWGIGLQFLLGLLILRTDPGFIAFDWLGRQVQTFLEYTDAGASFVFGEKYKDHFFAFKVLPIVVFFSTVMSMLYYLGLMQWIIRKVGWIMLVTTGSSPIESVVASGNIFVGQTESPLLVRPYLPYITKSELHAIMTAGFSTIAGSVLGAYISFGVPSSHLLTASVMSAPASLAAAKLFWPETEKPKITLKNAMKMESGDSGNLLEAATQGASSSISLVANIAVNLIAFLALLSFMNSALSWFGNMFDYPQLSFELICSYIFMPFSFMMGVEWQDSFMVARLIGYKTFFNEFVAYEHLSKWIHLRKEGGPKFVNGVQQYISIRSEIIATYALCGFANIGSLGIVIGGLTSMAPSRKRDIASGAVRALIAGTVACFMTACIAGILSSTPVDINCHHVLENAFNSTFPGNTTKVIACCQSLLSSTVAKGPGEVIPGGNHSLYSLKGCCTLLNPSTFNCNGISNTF
Protocol: as §1, §2

[6] = system: HeLa cells transiently transfected with hOAT1
Protocol: as §3

[7] = substrate: C=C1[C@H](CO)[C@@H](O)C[C@@H]1n1cnc2c(=O)[nH]c(N)nc21; assay: not read; type: in vitro ADME, human; conditions: other: HeLa cells transiently transfected with hOAT1, 5 min, 37°C
[8] = substrate: C=C1[C@H](CO)[C@@H](O)C[C@@H]1n1cnc2c(=O)[nH]c(N)nc21; assay: not read; conditions: 5 min, 37°C

Molecule: Nc1ncnc2c1ncn2CCOCP(=O)(O)O [adefovir]
- Effect of hOAT1 expression on cytotoxicity (cell viability) [1]: significantly enhanced the cytotoxic effect
- Km [2]: 23.8 µM
- Therapeutic plasma levels achieved in humans [3]: 0.1 µM
- Inhibitory effect on hCNT2 [4]: not observed
- Inhibitory effect on hCNT3 [5]: not observed

- Inhibitory effect on hCNT2 [4]: not observed
- Inhibitory effect on hCNT3 [5]: not observed
Molecule: Nc1ccn(C[C@@H](CO)OCP(=O)(O)O)c(=O)n1 [cidofovir]
- Effect of hOAT1 expression on cytotoxicity (cell viability) [1]: significantly enhanced the cytotoxic effect
- Therapeutic plasma levels achieved in humans [3]: 70 µM

- Inhibitory effect on hCNT2 [4]: not observed
- Inhibitory effect on hCNT3 [5]: not observed
Molecule: C[C@H](Cn1cnc2c(N)ncnc21)OCP(=O)(O)O [tenofovir]
- Effect of hOAT1 expression on cytotoxicity (cell viability) [6]: significantly enhanced the cytotoxic effect
- Therapeutic plasma levels achieved in humans [3]: 0.5 µM

B1: hOAT1 (Homo sapiens) (protein)
chain: T1 sequence (Q4U2R8 1-563)
notes: host or cells: HeLa cells, transient transfection
- Km [7]: 316.5 µM

B2: hCNT2 (Homo sapiens) (protein)
chain: T2 sequence (O43868 1-658)
- Km ([8]; other: hCNT2 transfected cells): 1522.00 µM

B3: hCNT3 (Homo sapiens) (protein)
chain: T3 sequence (Q9HAS3 1-691)
- Km ([8]; other: hCNT3 transfected cells): 99.02 µM
